Experimental data from ChEMBL document CHEMBL3396997, “Piperidine-3,4-diol and piperidine-3-ol derivatives of pyrrolo[2,1-f][1,2,4]triazine as inhibitors of anaplastic lymphoma kinase” (Bioorg Med Chem Lett, 2015).
In brackets after ≈: the same amount, converted by molar mass. Activity calls are given as the source filed them. No cut-off for these calls is given here.

Legend:
[1] = Half life in mouse liver microsomes; assay type: ADME
[2] = Half life in rat liver microsomes; assay type: ADME
[3] = Half life in monkey liver microsomes; assay type: ADME, Macaca mulatta; settings: rhesus monkey
[4] = Half life in human liver microsomes; assay type: ADME
[5] = Solubility in water at neutral pH; assay type: physicochemical
[6] = molecular target: Voltage-gated inwardly rectifying potassium channel KCNH2 (Homo sapiens, UniProt Q12809); test: Inhibition of human ERG by patch clamp cellular assay
Voltage-gated inwardly rectifying potassium channel KCNH2, sequence (Q12809 whole entry): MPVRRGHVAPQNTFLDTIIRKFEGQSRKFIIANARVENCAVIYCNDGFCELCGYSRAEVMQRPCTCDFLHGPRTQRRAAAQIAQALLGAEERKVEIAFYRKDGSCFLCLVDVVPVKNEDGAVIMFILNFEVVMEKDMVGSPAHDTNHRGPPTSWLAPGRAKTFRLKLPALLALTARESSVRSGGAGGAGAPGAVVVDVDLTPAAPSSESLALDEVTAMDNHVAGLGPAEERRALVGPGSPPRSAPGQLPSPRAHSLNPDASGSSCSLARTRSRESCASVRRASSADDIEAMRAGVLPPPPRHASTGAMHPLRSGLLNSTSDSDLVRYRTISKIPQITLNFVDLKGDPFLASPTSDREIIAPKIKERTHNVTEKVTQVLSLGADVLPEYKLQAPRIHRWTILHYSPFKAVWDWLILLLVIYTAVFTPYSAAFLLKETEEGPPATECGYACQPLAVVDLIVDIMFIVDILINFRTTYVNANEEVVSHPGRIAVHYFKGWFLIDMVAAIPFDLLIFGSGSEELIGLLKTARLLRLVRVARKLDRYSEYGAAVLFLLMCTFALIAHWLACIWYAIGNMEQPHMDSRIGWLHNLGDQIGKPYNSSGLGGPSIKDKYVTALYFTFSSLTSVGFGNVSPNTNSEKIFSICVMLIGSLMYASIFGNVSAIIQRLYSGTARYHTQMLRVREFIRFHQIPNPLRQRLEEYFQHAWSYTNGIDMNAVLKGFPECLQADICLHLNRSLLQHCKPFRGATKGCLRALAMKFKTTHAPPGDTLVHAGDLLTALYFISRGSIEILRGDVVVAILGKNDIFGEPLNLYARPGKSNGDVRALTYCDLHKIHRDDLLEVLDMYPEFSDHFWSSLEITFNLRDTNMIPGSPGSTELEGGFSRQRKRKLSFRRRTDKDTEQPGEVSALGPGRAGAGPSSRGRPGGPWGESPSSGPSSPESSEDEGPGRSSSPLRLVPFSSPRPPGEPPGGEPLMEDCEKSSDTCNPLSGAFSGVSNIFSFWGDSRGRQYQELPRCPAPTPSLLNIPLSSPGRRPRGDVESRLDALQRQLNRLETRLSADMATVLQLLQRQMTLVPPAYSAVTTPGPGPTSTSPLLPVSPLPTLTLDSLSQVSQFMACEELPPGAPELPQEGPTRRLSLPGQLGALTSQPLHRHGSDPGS

Mus musculus [7] = test: Toxicity in human SUP-M2 cells xenografted SCID mouse assessed as body weight loss at 30 mg/kg, po BID for 10 days; assay type: organism-based; design: dose 30 mg/kg, route oral; settings: in vivo, 240 h
Mus musculus [8] = test: Toxicity in human SUP-M2 cells xenografted SCID mouse assessed as body weight loss at 55 mg/kg, po BID for 10 days; assay type: organism-based; design: dose 55 mg/kg, route oral; settings: in vivo, 240 h
Mus musculus [9] = test: Toxicity in human SUP-M2 cells xenografted SCID mouse assessed as incidences of overt toxicity at 30 mg/kg, po BID for 10 days; assay type: organism-based; design: dose 30 mg/kg, route oral; settings: in vivo, 240 h
Mus musculus [10] = test: Toxicity in human SUP-M2 cells xenografted SCID mouse assessed as incidences of overt toxicity at 55 mg/kg, po BID for 10 days; assay type: organism-based; design: dose 55 mg/kg, route oral; settings: in vivo, 240 h
Cytochrome P450 2C9 = Cytochrome P450 2C9 (Homo sapiens, UniProt P11712); test: Inhibition of CYP2C9 (unknown origin); assay type: ADME
Cytochrome P450 2C9, sequence (P11712 whole entry): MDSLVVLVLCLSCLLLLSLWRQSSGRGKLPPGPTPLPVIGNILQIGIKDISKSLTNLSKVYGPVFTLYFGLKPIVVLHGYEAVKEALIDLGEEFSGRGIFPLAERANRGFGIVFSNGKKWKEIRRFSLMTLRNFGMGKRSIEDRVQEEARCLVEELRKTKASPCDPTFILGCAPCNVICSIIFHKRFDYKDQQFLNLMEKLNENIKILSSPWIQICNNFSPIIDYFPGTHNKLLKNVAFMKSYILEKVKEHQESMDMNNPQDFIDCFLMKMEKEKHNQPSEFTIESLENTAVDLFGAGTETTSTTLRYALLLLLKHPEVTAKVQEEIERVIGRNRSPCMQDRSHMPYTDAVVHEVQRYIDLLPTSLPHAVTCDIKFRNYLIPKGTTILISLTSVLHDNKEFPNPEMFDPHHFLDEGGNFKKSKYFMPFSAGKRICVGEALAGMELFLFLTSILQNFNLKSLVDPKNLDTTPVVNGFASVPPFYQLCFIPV

Cytochrome P450 2C19 = Cytochrome P450 2C19 (Homo sapiens, UniProt P33261); test: Inhibition of CYP2C19 (unknown origin); assay type: ADME
Cytochrome P450 2C19, sequence (P33261 whole entry): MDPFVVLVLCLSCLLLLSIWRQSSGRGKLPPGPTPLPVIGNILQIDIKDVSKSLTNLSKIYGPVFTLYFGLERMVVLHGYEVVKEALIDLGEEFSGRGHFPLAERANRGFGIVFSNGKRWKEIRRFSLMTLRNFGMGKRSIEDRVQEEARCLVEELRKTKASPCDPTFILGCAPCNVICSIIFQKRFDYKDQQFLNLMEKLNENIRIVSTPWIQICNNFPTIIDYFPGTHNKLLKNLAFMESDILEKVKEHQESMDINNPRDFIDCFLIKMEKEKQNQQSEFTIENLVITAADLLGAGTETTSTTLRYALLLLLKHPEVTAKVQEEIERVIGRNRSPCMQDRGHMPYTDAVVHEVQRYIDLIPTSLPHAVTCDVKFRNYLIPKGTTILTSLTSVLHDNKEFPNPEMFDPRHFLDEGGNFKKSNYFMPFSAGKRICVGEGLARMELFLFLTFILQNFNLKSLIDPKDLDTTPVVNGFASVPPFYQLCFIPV

Cytochrome P450 3A4 = Cytochrome P450 3A4 (Homo sapiens, UniProt P08684); test: Inhibition of CYP3A4 (unknown origin); assay type: ADME
Cytochrome P450 3A4, sequence (P08684 whole entry): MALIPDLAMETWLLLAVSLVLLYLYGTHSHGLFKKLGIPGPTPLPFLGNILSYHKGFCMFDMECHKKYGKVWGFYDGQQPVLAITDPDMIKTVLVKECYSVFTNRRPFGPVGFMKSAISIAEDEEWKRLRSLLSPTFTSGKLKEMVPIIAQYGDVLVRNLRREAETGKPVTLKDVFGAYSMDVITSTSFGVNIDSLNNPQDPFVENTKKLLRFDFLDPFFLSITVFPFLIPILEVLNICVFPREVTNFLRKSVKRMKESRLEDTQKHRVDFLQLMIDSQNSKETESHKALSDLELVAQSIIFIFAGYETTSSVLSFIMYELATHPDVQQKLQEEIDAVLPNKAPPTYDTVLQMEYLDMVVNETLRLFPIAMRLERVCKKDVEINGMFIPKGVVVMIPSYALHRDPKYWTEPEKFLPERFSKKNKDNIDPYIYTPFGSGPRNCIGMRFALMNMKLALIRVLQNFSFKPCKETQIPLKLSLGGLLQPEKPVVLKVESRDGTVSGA

Cytochrome P450 1A2 = molecular target: T1, Cytochrome P450 1A2 (Homo sapiens, UniProt P05177); test: Inhibition of CYP1A2 (unknown origin); assay type: ADME
T1 sequence (P05177 whole entry): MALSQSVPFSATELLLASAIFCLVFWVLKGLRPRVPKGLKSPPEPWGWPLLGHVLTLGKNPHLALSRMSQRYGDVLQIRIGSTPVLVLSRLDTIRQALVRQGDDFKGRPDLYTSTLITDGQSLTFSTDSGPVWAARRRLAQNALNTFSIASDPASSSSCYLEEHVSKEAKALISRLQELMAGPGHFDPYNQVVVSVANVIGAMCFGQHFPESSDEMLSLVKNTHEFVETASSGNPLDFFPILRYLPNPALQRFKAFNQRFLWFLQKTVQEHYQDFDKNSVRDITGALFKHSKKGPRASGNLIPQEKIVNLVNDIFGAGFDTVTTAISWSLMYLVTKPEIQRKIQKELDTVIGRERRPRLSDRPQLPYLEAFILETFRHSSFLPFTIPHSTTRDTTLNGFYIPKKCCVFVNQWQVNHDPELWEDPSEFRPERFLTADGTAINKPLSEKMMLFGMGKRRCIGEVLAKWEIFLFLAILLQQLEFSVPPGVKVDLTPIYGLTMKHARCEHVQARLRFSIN

Cytochrome P450 2D6 = Cytochrome P450 2D6 (Homo sapiens, UniProt P10635); test: Inhibition of CYP2D6A (unknown origin); assay type: ADME
Cytochrome P450 2D6, sequence (P10635 whole entry): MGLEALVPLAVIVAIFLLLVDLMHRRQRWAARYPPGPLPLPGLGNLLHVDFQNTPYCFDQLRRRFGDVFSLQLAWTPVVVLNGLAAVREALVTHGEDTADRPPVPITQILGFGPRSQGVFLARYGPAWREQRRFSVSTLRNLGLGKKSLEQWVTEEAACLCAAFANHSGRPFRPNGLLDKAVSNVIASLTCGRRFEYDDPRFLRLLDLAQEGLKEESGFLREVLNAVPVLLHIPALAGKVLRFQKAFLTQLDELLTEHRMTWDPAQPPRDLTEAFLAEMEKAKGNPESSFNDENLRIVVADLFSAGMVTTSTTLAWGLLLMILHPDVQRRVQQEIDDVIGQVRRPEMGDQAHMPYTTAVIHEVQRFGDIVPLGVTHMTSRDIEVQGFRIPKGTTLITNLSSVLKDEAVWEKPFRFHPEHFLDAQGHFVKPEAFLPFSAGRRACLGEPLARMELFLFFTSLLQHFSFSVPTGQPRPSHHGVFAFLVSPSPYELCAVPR

Plasma [11] = test: (§1) Plasma concentration in human SUP-M2 cells xenografted SCID mouse at 30 mg/kg, po measured after 2 hrs; assay type: ADME, organism-based; design: dose 30 mg/kg, route oral; settings: in vivo, 2 h
Plasma [12] = test: (§2) Plasma concentration in human SUP-M2 cells xenografted SCID mouse at 30 mg/kg, po measured after 6 hrs; assay type: ADME, organism-based; design: dose 30 mg/kg, route oral; settings: in vivo, 6 h
Brain [13] = test: (§3) Drug concentration in brain of human SUP-M2 cells xenografted SCID mouse at 30 mg/kg, po measured after 2 hrs; assay type: ADME, organism-based; design: dose 30 mg/kg, route oral; settings: in vivo, 2 h
Brain [14] = test: (§4) Drug concentration in brain of human SUP-M2 cells xenografted SCID mouse at 30 mg/kg, po measured after 6 hrs; assay type: ADME, organism-based; design: dose 30 mg/kg, route oral; settings: in vivo, 6 h
[15] = Plasma concentration in human SUP-M2 cells xenografted SCID mouse at 30 mg/kg, po measured after 16 hrs; assay type: ADME, organism-based; design: dose 30 mg/kg, route oral
[16] = Drug concentration in brain of human SUP-M2 cells xenografted SCID mouse at 30 mg/kg, po measured after 16 hrs; assay type: ADME, organism-based; design: dose 30 mg/kg, route oral; settings: read-out: Drug uptake
SUP-M2 [17] = test: Antitumor activity against human SUP-M2 cells xenografted in SCID mouse assessed as induction of tumor regression at 30 mg/kg, po BID for 10 days; assay type: functional, organism-based; design: dose 30 mg/kg
SUP-M2 [18] = test: Antitumor activity against human SUP-M2 cells xenografted in SCID mouse assessed as induction of tumor regression at 55 mg/kg, po BID for 10 days; assay type: functional, organism-based; design: dose 55 mg/kg
[19] = Half life in Sprague-Dawley rat at 1 mg/kg, iv; assay type: ADME, organism-based; design: dose 1 mg/kg, route intravenous; settings: in vivo
[20] = AUC (0 to infinity) in Sprague-Dawley rat at 1 mg/kg, iv; assay type: ADME, organism-based; design: time infinity, dose 1 mg/kg, route intravenous; settings: plasma
[21] = Volume of distribution in Sprague-Dawley rat at 1 mg/kg, iv; assay type: ADME, organism-based; design: dose 1 mg/kg, route intravenous; settings: in vivo
[22] = Clearance in Sprague-Dawley rat at 1 mg/kg, iv; assay type: ADME, organism-based; design: dose 1 mg/kg, route intravenous; settings: in vivo
[23] = Cmax in Sprague-Dawley rat at 5 mg/kg, po; assay type: ADME, organism-based; design: dose 5 mg/kg, route oral; settings: in vivo
[24] = Tmax in Sprague-Dawley rat at 5 mg/kg, po; assay type: ADME, organism-based; design: dose 5 mg/kg, route oral; settings: in vivo
[25] = AUC (0 to infinity) in Sprague-Dawley rat at 5 mg/kg, po; assay type: ADME, organism-based; design: time infinity, dose 5 mg/kg, route oral; settings: plasma
[26] = Oral bioavailability in Sprague-Dawley rat at 5 mg/kg; assay type: ADME, organism-based; settings: in vivo
[27] = as §1; assay type: ADME, organism-based; design: dose 30 mg/kg, route oral; settings: SCID, plasma
[28] = as §2; assay type: ADME, organism-based; design: dose 30 mg/kg, route oral; settings: SCID, plasma
[29] = Plasma concentration in human SUP-M2 cells xenografted SCID mouse at 30 mg/kg, po measured after 12 hrs; assay type: ADME, organism-based; design: dose 30 mg/kg, route oral
[30] = Plasma concentration in human SUP-M2 cells xenografted SCID mouse at 30 mg/kg, po measured after 24 hrs; assay type: ADME, organism-based; design: dose 30 mg/kg, route oral
[31] = as §3; assay type: ADME, organism-based; design: dose 30 mg/kg, route oral; settings: SCID, brain, read-out: Drug uptake
[32] = as §4; assay type: ADME, organism-based; design: dose 30 mg/kg, route oral; settings: SCID, brain, read-out: Drug uptake
[33] = Drug concentration in brain of human SUP-M2 cells xenografted SCID mouse at 30 mg/kg, po measured after 12 hrs; assay type: ADME, organism-based; design: dose 30 mg/kg, route oral; settings: read-out: Drug uptake
[34] = Drug concentration in brain of human SUP-M2 cells xenografted SCID mouse at 30 mg/kg, po measured after 24 hrs; assay type: ADME, organism-based; design: dose 30 mg/kg, route oral; settings: read-out: Drug uptake

SMILES: COc1cc([C@@]2(O)CCNC[C@@H]2O)ccc1Nc1ncc2ccc(-c3ccccc3N(C)S(C)(=O)=O)n2n1
- half-life [1]: > 40 min
- half-life [2]: > 40 min
- half-life [3]: 25 min
- half-life [4]: > 40 min

SMILES: COc1cc([C@@]2(O)CCNC[C@@H]2O)ccc1Nc1ncc2ccc(-c3ccccc3OC)n2n1
- half-life [1]: > 40 min
- half-life [2]: > 40 min
- half-life [3]: > 40 min
- half-life [4]: > 40 min

SMILES: COc1cc([C@@]2(O)CCN(CC(N)=O)C[C@@H]2O)ccc1Nc1ncc2ccc(-c3ccccc3N(C)S(C)(=O)=O)n2n1
- half-life [1]: > 40 min
- half-life [2]: 26 min
- half-life [3]: 8 min
- half-life [4]: 32 min
- solubility [5]: ≥ 33 µg/mL

SMILES: COc1cc([C@@]2(O)CCN(CC(N)=O)C[C@@H]2O)ccc1Nc1ncc2ccc(-c3ccccc3OC)n2n1
- half-life [1]: > 40 min
- half-life [2]: 31 min
- half-life [3]: 17 min
- half-life [4]: > 40 min
- solubility [5]: ≥ 33 µg/mL

SMILES: COc1cc([C@H]2CCN(CCO)C[C@@H]2O)ccc1Nc1ncc2ccc(-c3ccccc3OC)n2n1 [listing 1 of 2 here]
- IC50 [6]: 6.8 µM
- Activity (Mus musculus [7]): Non-toxic
- Activity (Mus musculus [8]): Non-toxic
- Activity (Mus musculus [9]): Non-toxic
- Activity (Mus musculus [10]): Non-toxic
- IC50 (Cytochrome P450 2C9): 19 µM
- IC50 (Cytochrome P450 2C19): 17 µM
- IC50 (Cytochrome P450 3A4): 12 µM
- IC50 (Cytochrome P450 1A2): > 30 µM
- IC50 (Cytochrome P450 2D6): > 30 µM
- Cp (Plasma [11]): 407 ng/mL
- Cp (Plasma [12]): 573 ng/mL
- Drug uptake (Brain [13]): 1217 ng/g
- Drug uptake (Brain [14]): 3150 ng/g
- concentration at 16 h [15]: 567 ng/mL
- concentration at 16 h [16]: 16100 ng/g

SMILES: COc1cc([C@H]2CCN(CCO)C[C@@H]2O)ccc1Nc1ncc2ccc(-c3ccccc3OC)n2n1 [listing 2 of 2 here]
- inhibition (SUP-M2 [17]): Active
- inhibition (SUP-M2 [18]): Active

SMILES: COc1cc(C2CCN(C)CC2O)ccc1Nc1ncc2ccc(-c3ccccc3OC)n2n1 (racemic)
- half-life [1]: 18 min
- half-life [2]: > 40 min
- half-life [3]: 22 min
- half-life [4]: > 40 min

SMILES: COc1cc([C@@H]2CCN(CCO)C[C@@H]2O)ccc1Nc1ncc2ccc(-c3ccccc3OC)n2n1 (racemic)
- half-life [1]: 37 min
- half-life [2]: > 40 min
- half-life [3]: > 40 min
- half-life [4]: > 40 min
- solubility [5]: 50 µg/mL (≈ 102 µM)
- half-life [19]: 150 min
- AUC(0-inf) [20]: 371 ng·h/mL
- Vd [21]: 9.9 L/kg
- clearance [22]: 46 mL/min/kg
- Cmax [23]: 85 ng/mL
- Tmax [24]: 360 min
- AUC(0-inf) [25]: 479 ng·h/mL
- bioavailability [26]: 26%
- concentration at 2 h [27]: 389 ng/mL
- concentration at 6 h [28]: 201 ng/mL
- concentration at 12 h [29]: 164 ng/mL
- concentration at 24 h [30]: 19 ng/mL
- concentration at 2 h [31]: 1650 ng/g
- concentration at 6 h [32]: 1770 ng/g
- concentration at 12 h [33]: 2520 ng/g
- concentration at 24 h [34]: 1580 ng/g

SMILES: COc1cc([C@@H]2CCNC[C@@H]2O)ccc1Nc1ncc2ccc(-c3ccccc3OC)n2n1 (relative stereo)
- half-life [1]: > 40 min
- half-life [2]: > 40 min
- half-life [3]: > 40 min
- half-life [4]: > 40 min

SMILES: COc1cc([C@@]2(O)CCN(C)C[C@@H]2O)ccc1Nc1ncc2ccc(-c3ccccc3OC)n2n1 (relative stereo)
- IC50 [6]: Active
- half-life [1]: > 40 min
- half-life [2]: > 40 min
- half-life [3]: 32 min
- half-life [4]: > 40 min

SMILES: COc1cc([C@@H]2CCN(CC(N)=O)C[C@@H]2O)ccc1Nc1ncc2ccc(-c3ccccc3OC)n2n1 (relative stereo)
- half-life [1]: > 40 min
- half-life [2]: 34 min
- half-life [3]: 7 min
- half-life [4]: 19 min
- solubility [5]: 2 µg/mL (≈ 3.98 µM)

SMILES: COc1cc([C@H]2CCN(CCO)C[C@@H]2O)ccc1Nc1ncc2ccc(-c3ccccc3OC)n2n1 (relative stereo)
- half-life [1]: > 40 min
- half-life [2]: > 40 min
- half-life [3]: 30 min
- half-life [4]: > 40 min
- half-life [19]: 192 min
- AUC(0-inf) [20]: 459 ng·h/mL
- Vd [21]: 10.3 L/kg
- clearance [22]: 39 mL/min/kg
- Cmax [23]: 97 ng/mL
- Tmax [24]: 240 min
- AUC(0-inf) [25]: 708 ng·h/mL
- bioavailability [26]: 31%
- concentration at 2 h [27]: 523 ng/mL
- concentration at 6 h [28]: 361 ng/mL
- concentration at 12 h [29]: 213 ng/mL
- concentration at 24 h [30]: 55 ng/mL
- concentration at 2 h [31]: 1960 ng/g
- concentration at 6 h [32]: 3930 ng/g
- concentration at 12 h [33]: 2670 ng/g
- concentration at 24 h [34]: 1280 ng/g

SMILES: COc1cc(C2CCN(CCO)CC2O)ccc1Nc1ncc2ccc(-c3ccccc3OC)n2n1 (single isomer, unassigned; enantiomer 1)
- concentration at 2 h [27]: 355 ng/mL
- concentration at 6 h [28]: 148 ng/mL
- concentration at 2 h [31]: 1030 ng/g
- concentration at 6 h [32]: 1160 ng/g
- concentration at 16 h [15]: 51 ng/mL
- concentration at 16 h [16]: 2210 ng/g
